# Experiments:
# Escherichia coli [1] = test: Antibacterial activity against Escherichia coli EC600 transconjugant harboring beta-lactamase KPC-2 by agar dilution method; type: functional
# Escherichia coli [2] = test: Antibacterial activity against Escherichia coli EC600 by agar dilution method; type: functional
# Escherichia coli [3] = test: microbe, parasite or virus in culture; details: isolate E1
# Description: (§1) Antibacterial activity against beta-lactamase KPC-2 producing Escherichia coli isolate E1 by agar dilution method
# Serratia marcescens [4] = test: Antibacterial activity against beta-lactamase KPC-2 producing Serratia marcescens isolate S1 to S21 by agar dilution method
# Klebsiella pneumoniae [5] = test: Antibacterial activity against beta-lactamase KPC-2 producing Klebsiella pneumoniae isolate K10 by agar dilution method; type: functional
# Klebsiella pneumoniae [6] = test: Antibacterial activity against beta-lactamase KPC-2 producing Klebsiella pneumoniae isolate K1 to K9 by agar dilution method; type: functional
# Serratia marcescens [7] = test: Antibacterial activity against beta-lactamase KPC-2 producing Serratia marcescens isolate S1 to S21 in presence of Tazobactam by agar dilution method; type: functional
# Klebsiella pneumoniae [8] = test: Antibacterial activity against beta-lactamase KPC-2 producing Klebsiella pneumoniae isolate K1 to K9 in presence of Tazobactam by agar dilution method; type: functional
# Escherichia coli [9] = test: Antibacterial activity against Escherichia coli EC600 in presence of Tazobactam by agar dilution method; type: functional
# Escherichia coli [10] = test: Antibacterial activity against Escherichia coli EC600 transconjugant harboring beta-lactamase KPC-2 in presence of Tazobactam by agar dilution method; type: functional
# Escherichia coli [11] = test: Antibacterial activity against beta-lactamase KPC-2 producing Escherichia coli isolate E1 in presence of Tazobactam by agar dilution method; type: functional
# Klebsiella pneumoniae [12] = test: Antibacterial activity against beta-lactamase KPC-2 producing Klebsiella pneumoniae isolate K10 in presence of Tazobactam by agar dilution method; type: functional
# Escherichia coli [13] = details: isolate E1
# Description: as §1
# Serratia marcescens [14] = test: Antibacterial activity against beta-lactamase KPC-2 producing Serratia marcescens isolate S1 to S21 in presence of Sulbactam by agar dilution method; type: functional
# Escherichia coli [15] = test: Antibacterial activity against Escherichia coli EC600 transconjugant harboring beta-lactamase KPC-2 in presence of Sulbactam by agar dilution method
# Escherichia coli [16] = test: Antibacterial activity against Escherichia coli EC600 in presence of Sulbactam by agar dilution method; type: functional
# Escherichia coli [17] = test: microbe, parasite or virus in culture; details: isolate E1; remark: listed apart in the source
# Description: Antibacterial activity against beta-lactamase KPC-2 producing Escherichia coli isolate E1 in presence of Sulbactam by agar dilution method
# Klebsiella pneumoniae [18] = test: Antibacterial activity against beta-lactamase KPC-2 producing Klebsiella pneumoniae isolate K10 in presence of Sulbactam by agar dilution method; type: functional
# Klebsiella pneumoniae [19] = test: Antibacterial activity against beta-lactamase KPC-2 producing Klebsiella pneumoniae isolate K1 to K9 in presence of Sulbactam by agar dilution method; type: functional
Compound,MIC (Escherichia coli [1]) [mg/L],MIC (Escherichia coli [2]) [mg/L],MIC (Escherichia coli [3]) [mg/L],MIC (Serratia marcescens [4]) [mg/L],MIC (Klebsiella pneumoniae [5]) [mg/L],MIC (Klebsiella pneumoniae [6]) [mg/L],further results
CO[C@@]1(NC(=O)Cc2cccs2)C(=O)N2C(C(=O)O)=C(COC(N)=O)CS[C@@H]21 [CEFOXITIN],16,8,32,16,256,8,–
C[C@@H](O)[C@H]1C(=O)N2C(C(=O)O)=C(S[C@@H]3CN[C@H](C(=O)Nc4cccc(C(=O)O)c4)C3)[C@H](C)[C@H]12,4,≤ 0.125,8,4,> 256,8,–
C[C@@H](O)[C@H]1C(=O)N2C(C(=O)O)=C(SCCNC=N)C[C@H]12 [IMIPENEM ANHYDROUS],1,≤ 0.125,2,4,128,2,–
CC1(C)S[C@@H]2[C@H](NC(=O)[C@H](N)c3ccccc3)C(=O)N2[C@H]1C(=O)O [AMPICILLIN],> 256,8,> 256,> 256,> 256,> 256,–
CCN1CCN(C(=O)N[C@@H](C(=O)N[C@@H]2C(=O)N3[C@@H]2SC(C)(C)[C@@H]3C(=O)O)c2ccccc2)C(=O)C1=O [PIPERACILLIN],256,1,> 256,256,> 256,–,MIC (Serratia marcescens [7]): 128 mg/L; MIC (Klebsiella pneumoniae [8]): > 256 mg/L; MIC (Escherichia coli [9]): 1 mg/L; MIC (Escherichia coli [10]): 256 mg/L; MIC (Escherichia coli [11]): 256 mg/L; MIC (Klebsiella pneumoniae [12]): > 256 mg/L
C[C@H]1[C@H](NC(=O)/C(=N\OC(C)(C)C(=O)O)c2csc(N)n2)C(=O)N1S(=O)(=O)O [AZTREONAM],128,≤ 0.125,256,128,> 256,256,–
CC(C)(O/N=C(\C(=O)N[C@@H]1C(=O)N2C(C(=O)[O-])=C(C[n+]3ccccc3)CS[C@H]12)c1csc(N)n1)C(=O)O [CEFTAZIDIME],16,0.25,64,8,256,64,–
GENTAMICIN,0.25,0.25,–,–,> 256,> 256,MIC (Escherichia coli [13]): 64 mg/L
C[C@@H](O)[C@H]1C(=O)N2C(C(=O)O)=C(S[C@@H]3CN[C@H](C(=O)N(C)C)C3)[C@H](C)[C@H]12 [MEROPENEM],2,≤ 0.125,2,2,256,–,–
CCN1CCN(C(=O)N[C@@H](C(=O)N[C@@H]2C(=O)N3C(C(=O)O)=C(CSc4nnnn4C)CS[C@H]23)c2ccc(O)cc2)C(=O)C1=O [CEFOPERAZONE],–,–,–,–,–,–,MIC (Serratia marcescens [14]): 32 mg/L; MIC (Escherichia coli [15]): 32 mg/L; MIC (Escherichia coli [16]): ≤ 0.125 mg/L; MIC (Escherichia coli [17]): 128 mg/L; MIC (Klebsiella pneumoniae [18]): > 256 mg/L; MIC (Klebsiella pneumoniae [19]): 128 mg/L
O=C(O)c1cn(C2CC2)c2cc(N3CCNCC3)c(F)cc2c1=O [CIPROFLOXACIN],–,–,> 32,–,–,–,–
CO/N=C(\C(=O)N[C@@H]1C(=O)N2C(C(=O)O)=C(COC(C)=O)CS[C@H]12)c1csc(N)n1 [CEFOTAXIME],8,≤ 0.125,256,16,256,128,–
CO/N=C(\C(=O)N[C@@H]1C(=O)N2C(C(=O)O)=C(CSc3nc(=O)c(O)nn3C)CS[C@H]12)c1csc(N)n1 [CEFTRIAXONE],32,≤ 0.125,> 256,32,> 256,256,–
CO/N=C(\C(=O)N[C@@H]1C(=O)N2C(C(=O)[O-])=C(C[N+]3(C)CCCC3)CS[C@H]12)c1csc(N)n1,8,≤ 0.125,64,8,256,–,–
